Results as given in ChEMBL document CHEMBL1149437, “1-Alkyl-benzotriazole-5-carboxylic acids are highly selective agonists of the human orphan G-protein-coupled receptor GPR109b” (J Med Chem, 2006).
Active and inactive are the calls of the source. No cut-off for these calls is given here.

Experiments:
[1] = molecular target: Hydroxycarboxylic acid receptor 3 (Homo sapiens, UniProt P49019); assay: Agonistic activity at GPR109b by cAMP whole cell assay; assay type: functional
[2] = molecular target: Hydroxycarboxylic acid receptor 2 (Mus musculus) (UniProt Q9EP66); assay: Activity against GPR109a upto 100 uM; assay type: functional
Hydroxycarboxylic acid receptor 2 (Mus musculus), sequence (Q9EP66 whole entry): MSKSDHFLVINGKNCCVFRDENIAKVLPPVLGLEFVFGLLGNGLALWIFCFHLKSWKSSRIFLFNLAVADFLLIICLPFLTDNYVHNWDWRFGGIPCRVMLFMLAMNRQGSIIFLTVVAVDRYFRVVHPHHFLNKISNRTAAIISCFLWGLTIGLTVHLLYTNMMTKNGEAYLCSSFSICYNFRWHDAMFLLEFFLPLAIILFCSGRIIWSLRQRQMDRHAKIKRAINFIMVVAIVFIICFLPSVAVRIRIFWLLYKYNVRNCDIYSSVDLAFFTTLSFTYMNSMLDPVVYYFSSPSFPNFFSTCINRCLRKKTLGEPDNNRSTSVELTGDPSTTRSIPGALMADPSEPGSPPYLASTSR

[3] = molecular target: Adrenergic receptor beta (Homo sapiens) (UniProt P08588+P07550+P13945); assay: Activity against beta adrenergic receptor; assay type: protein assay

Hydroxycarboxylic acid receptor 3, sequence (P49019 whole entry): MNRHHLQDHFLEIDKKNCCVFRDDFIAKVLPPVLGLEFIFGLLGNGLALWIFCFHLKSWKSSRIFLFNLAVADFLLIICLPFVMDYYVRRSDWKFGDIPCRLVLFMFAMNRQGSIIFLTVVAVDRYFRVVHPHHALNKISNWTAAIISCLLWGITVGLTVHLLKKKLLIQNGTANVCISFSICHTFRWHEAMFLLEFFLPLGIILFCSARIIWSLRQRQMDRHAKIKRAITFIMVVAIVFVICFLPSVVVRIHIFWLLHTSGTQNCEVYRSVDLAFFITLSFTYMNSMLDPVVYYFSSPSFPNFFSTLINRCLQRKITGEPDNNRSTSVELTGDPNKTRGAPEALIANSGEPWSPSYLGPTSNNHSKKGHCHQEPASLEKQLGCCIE

Row | SMILES | EC50 [1] [µM] | Activity [2] | Log EC50 [1] | Activity [3]
1 | O=C(O)c1ccc2c(c1)nnn2C1CCC1 | 3.09 | inactive | – | –
2 | O=C(O)c1ccc2c(c1)nnn2C1CCCC1 | 1.1 | inactive | – | –
3 | CC(C)n1nnc2cc(-c3nn[nH]n3)ccc21 | – | inactive | inactive | –
4 | O=C(O)c1ccc2c(c1)nnn2-c1ccccc1 | – | inactive | inactive | –
5 | CCCCn1nnc2cc(C(=O)O)ccc21 | 0.692 | inactive | – | –
6 | O=C(O)c1ccc2c(c1)nnn2C(c1ccccc1)c1ccccc1 | > 10 | inactive | – | –
7 | CCC(C)n1nnc2cc(C(=O)O)ccc21 (centres undefined) | 0.331 | inactive | – | –
8 | CCC(CC)n1nnc2cc(C(=O)O)ccc21 | 3.02 | inactive | – | –
9 | CC(C)(C)n1nnc2cc(C(=O)O)ccc21 | 0.257 | inactive | – | –
10 | CCSCCn1nnc2cc(C(=O)O)ccc21 | 0.302 | inactive | – | –
11 | CCCn1nnc2cc(C(=O)O)ccc21 | 7.41 | inactive | – | –
12 | Cc1nc2cc(C(=O)O)ccc2n1C(C)C | – | inactive | inactive | –
13 | O=C(O)c1ccc2c(c1)nnn2CC1CC1 | – | inactive | inactive | –
14 | C=CCn1nnc2cc(C(=O)O)ccc21 | – | inactive | inactive | –
15 | Cn1nnc2cc(C(=O)O)ccc21 | 2 | inactive | – | –
16 | COc1ccc(Cn2nnc3cc(C(=O)O)ccc32)cc1 | – | inactive | inactive | –
17 | COCCn1nnc2cc(C(=O)O)ccc21 | 0.316 | inactive | – | –
18 | O=C(O)c1ccc2[nH]nnc2c1 | – | inactive | inactive | –
19 | CC(C)n1nnc2cc(C(=O)O)ccc21 | 0.398 | inactive | – | inactive
20 | CCCCCn1nnc2cc(C(=O)O)ccc21 | 0.288 | inactive | – | –
21 | O=C(O)c1ccc2c(c1)nnn2C1CCCCC1 | 5.89 | inactive | – | –
22 | CCOCCn1nnc2cc(C(=O)O)ccc21 | 0.257 | inactive | – | –
23 | O=C(O)c1ccc2c(c1)nnn2C1CC1 | 2.34 | inactive | – | –
24 | O=C(O)c1ccc2c(c1)nnn2Cc1cc(F)cc(F)c1 | > 10 | inactive | – | –
25 | COCC(C)n1nnc2cc(C(=O)O)ccc21 (centres undefined) | 0.2 | inactive | – | –
26 | COc1cccc(Cn2nnc3cc(C(=O)O)ccc32)c1 | 5.01 | inactive | – | –
27 | CCn1nnc2cc(C(=O)O)ccc21 | 0.891 | inactive | – | –
28 | O=C(O)c1ccc2c(c1)nnn2Cc1ccccc1 | 9.12 | inactive | – | –
29 | CC(C)n1cnc2cc(C(=O)O)ccc21 | 3.39 | inactive | – | –
